Consider 2 molecules from patent US9757477B2, “Imaging brown adipose tissue with curcumin derivatives” (The General Hospital Corporation, priority 2013, dated 2017).

Test [1] has as its system BAT cells induced from wild-type brown preadipocytes. Kind of test: In vitro staining of BMPs-induced BAT cells (live cell confocal). Type of test: cell-based. Conditions: live cell confocal images.
A further test deals with inguinal sWAT. Kind of test: Monitoring browning of subcutaneous WAT after CL 316,243 treatment. Type of test: in vivo, C57BL6 mice. To be noted: after 12 days CL 316,243 1.0 mg/kg i.p. As to the method:
Two-month old C57BL6 mice (n=5) were i.p. injected CL 316,243 (100 uL, 1.0 mg/kg) for 12 days, and the control mice (n=5) were i.p. injected with saline. On the 13th day, both groups were imaged after i.v. injection of CRANAD-29. Images were acquired at 1-, 2-, 4-hours after the probe injection. After the last imaging session, inguinal sWAT were dissected after scarification of the mice, and the dissected sWAT tissue was subjected to qPCR for UCP-1 expression and H&E staining

The test system of test [2] is interscapular BAT. Kind of test: Monitoring interscapular BAT mass change in STZ-induced diabetic mice. Type of test: in vivo, Balb/c mice. On the procedure:
Monitoring was performed as follows. Two-month old Balb/c mice (n=5) were injected with STZ (80 mg/kg) for 7 days. When blood glucose levels reached 250 mg/dL on two consecutive days, mice were subjected to NIR imaging with CRANAD-29. Before imaging, the fur around the interscapular area was removed. Images were acquired at pre-injection, as well as 2- and 4-hours after i.v. injection. After imaging, mice were sacrificed, BAT from both groups was dissected, and weighted, and the linear correlation was established between in vivo fluorescence signal and weight of the dissected BATs. The same imaging procedure was conducted with the control group injected with the same volume of saline for 7 days (n=5).

The test system of test [3] is interscapular BAT. Kind of test: Monitoring BAT activation under cold exposure. Type of test: in vivo, balb/c mice. Conditions: 4° C. cold exposure. On the procedure:
BAT could be activated under various conditions including cold exposure. In this report, whether CRANAD-29 could be used to monitor BAT activation under these conditions was investigated as follows. Two-month old balb/c mice (n=5) were placed in a 4° C. cold room for 2 hours before i.v. injection of CRANAD-29. Images were acquired at 1-, 2-, 4-hours after probe injection, and mice were placed in the cold room between imaging sessions. Control mice (n=5) were placed in a 25° C. room. Images were captured at the same time points after CRANAD-29 injection.

On to `CN(C)c1ccc(/C=C/C2=CC(=C/C=C3C=CC(=[N+](C)C)C=C3)/O[B-](F)(F)O2)cc1` [CRANAD-2], for which, in test [1], the “staining of oil droplets in BAT cells” value is listed as “able to clearly label oil droplets in BAT cells”.
Turning to `F[B-]1(F)OC(/C=C/c2cc3c4c(c2)CCCN4CCC3)=CC(/C=C/c2cc3c4c(c2)CCCN4CCC3)=[O+]1` [CRANAD-29], the “CRANAD-29 signal around inguinal subcutaneous WAT, treated vs control group” value in the test with inguinal sWAT is listed as “significantly higher”. In addition, the “fluorescent signal from interscapular BAT area, treated vs control group” value in the test with inguinal sWAT is reported as “higher fluorescent signal”. Besides, in the test on interscapular BAT [2] (STZ 80 mg/kg for 7 days, CRANAD-29 i.v.), the “fluorescence signal from diabetic mice vs control group” value is “significantly lower”. The “correlation between BAT mass and fluorescence signal” value in the test on interscapular BAT [2] (STZ-treated and normal animals) was “excellent direct correlation”. Besides, the “signal of cold-exposed animals vs control group” value turned out to be 1.65 fold in the test with interscapular BAT [3] (1 hour after probe injection), 1.59 fold with interscapular BAT [3] (2 hours after probe injection) and 1.53 fold with interscapular BAT [3] (4 hours after probe injection).
